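How tested: cells in 96-well plates exposed to compound for 48 hours at five concentrations. GI50 = concentration required for 50% inhibition of growth. TGI marks complete inhibition of growth.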

36 compounds from PubChem BioAssay (NCI) can be followed below.

The subject of this assay is MDA-MB-468 breast. The experiment in a line: NCI tumour cell line growth inhibition, 48 h.

`O=C(N/N=C/c1ccc(O)cc1O)c1cccnc1`: the GI50 is 2.23 µM and the TGI amounted to 11.8 µM.
The matching figures for `CNC(C)[C@H]1CCC2C3CC=C4C(=O)[C@@H](NC(=O)C=C(C)C)CC[C@]4(C)C3CC[C@@]21C` (some centres not stated): 0.939 µM and 2.91 µM.
The matching figures for `Cc1cc(NCCCCNc2ccnc3cc(Cl)ccc23)nc(Nc2ccc(C(=O)N3CCCCC3)cc2)n1`: 1.37 µM and 3.09 µM.
The matching figures for `O=C1c2ccccc2C(=O)c2c(NCCN=Cc3ccccc3O)cccc21`: 1.69 µM and 4.42 µM.
As to `C=CCn1c(SCC(=O)Nc2ccc(C(=O)/C=C/c3cc(OC)c(OC)c(OC)c3)cc2)nnc1-c1ccc(OC)cc1`, the GI50 was 0.654 µM and the TGI was found to be 2.57 µM.
The matching figures for `Oc1ccc(Oc2cnc3ccccc3n2)cc1`: 49.4 µM and greater than 100 µM.
The matching figures for `COc1cc(/C=C2\CCC/C(=C\c3ccc(OCC4CO4)c(OC)c3)C2=O)ccc1OCC1CO1` (configuration not stated): 1.63 µM and 4.85 µM.
The matching figures for `COc1ccc(-c2noc(N)c2-c2cc(OC)c3c(c2)OCO3)cc1`: 0.966 µM and 7.47 µM.
With `NCCCOc1cc(Cl)ccc1NC(=O)c1cc2ccccc2cc1OCCCN`, the GI50 is 0.543 µM and the TGI is 1.89 µM.
The matching figures for `O=C(N[C@@H](Cc1coc2ccccc12)B(O)O)[C@@H]1C[C@H]2CC[C@@H]1O2`: 3.38 µM and 36 µM.
The matching figures for `CN(C)CCNc1nc2ccccc2c2c(=O)c3cc(F)ccc3sc12`: 1.65 µM and 3.22 µM.
Take `O=C1/C(=C/N2N=C(c3ccc4ccccc4c3)CC2c2ccccc2O)SC(=S)N1c1cccnc1` (configuration not stated): the GI50 is 1.06 µM and the TGI amounted to 5.33 µM.
The matching figures for `COc1ccc(-c2cc(Nc3ccnc(N4CCOCC4)n3)on2)cc1`: 0.375 µM and 2.49 µM.
The matching figures for `NC(=O)CNc1ccc([As]=[As]c2ccc(NCC(N)=O)cc2)cc1` (configuration not stated): 1.13 µM and 4.09 µM.
The matching figures for `Nc1c(C(=O)Nc2ccccc2Cl)sc2nc3c(cc12)C(=O)CCC3`: 0.324 µM and 5.42 µM.
With `Cc1noc2c1-c1ccccc1C(c1ccc(Cl)cc1)=N[C@H]2CC(N)=O`, the GI50 is 1.5 µM and the TGI was greater than 64.5 µM.
The matching figures for `CCOC(=O)C1=C(N)Oc2c(sc3c(C)cccc23)C1c1ccc(F)cc1` (configuration not stated): 1.16 µM and 8.8 µM.
`COc1ccc(-c2ccc(NNC(=O)c3ccc(F)cc3)nn2)cc1OC`: the GI50 was 64.3 µM and the TGI is greater than 100 µM.
For `Oc1ccc(N=Nc2nccs2)c(O)c1`, the GI50 was 4.76 µM and the TGI is greater than 100 µM.
The matching figures for `O=C(CCN1CCOCC1)Nc1cccc(-n2cc(-c3ccncc3)c(-c3ccc(Cl)c(O)c3)n2)c1`: 1.25 µM and 3.95 µM.
The matching figures for `CC1(C)N=C(N)N=C(N)N1c1cccc(OCCOc2cccc([N+](=O)[O-])c2)c1`: 0.463 µM and 21.6 µM.
The matching figures for `Cn1cc(-c2csc(-c3cn(C)c4ccc(F)cc34)n2)c2cnccc21`: 1.86 µM and 3.53 µM.
Turning to `COc1cc(OC)c2sc(-c3ccc(-n4cncc4-c4cc(OC)c(OC)c(OC)c4)cc3)nc2c1`, the GI50 was 3.27 µM and the TGI is greater than 100 µM.
The matching figures for `Cc1sc2c(c1C)C(c1ccc(Cl)cc1)=N[C@@H](CC(=O)Nc1ccc(OCCOCCOCCOCCNc3cccc4c3C(=O)N(C3CCC(=O)NC3=O)C4=O)cc1)c1nnc(C)n1-2` (some centres not stated): less than 0.0201 µM and greater than 100 µM.
The matching figures for `COC(=O)[C@]12CC[C@@H](C)[C@H](C)[C@@H]1C1=CC[C@@H]3[C@@]4(C)C(C=O)=C[C@@](C)(COC(=O)c5ccco5)[C@@H]4[C@H](O)C[C@@]3(C)[C@]1(C)CC2`: 1.69 µM and 5.66 µM.
The matching figures for `O=C(Nc1ccc(Cl)cc1)Nc1nccs1`: 0.398 µM and 3.7 µM.
For `C=C(C)[C@@H]1CC[C@]2(C)[C@H](CC[C@@H]3[C@@H]([C@@](C)(O)CCC=C(C)C)CC[C@]32C)[C@@]1(C)CCC(=O)O`, the GI50 was 22.4 µM and the TGI stood at 60.4 µM.
The matching figures for `NCCCOc1cc2ccccc2cc1C(=O)NCCCOc1cc2ccccc2cc1C(=O)Nc1ccc(Cl)cc1O`: 0.238 µM and 0.821 µM.
The matching figures for `Cn1cc(S(=O)(=O)N2CCC3=Cc4c(cnn4-c4ccc(F)cc4)C[C@]3(C(=O)c3cc(C(F)(F)F)ccn3)C2)cn1`: 68.8 µM and greater than 100 µM.
In the case of `O=C(NNc1cnccn1)c1nc2cc(F)ccc2n2cccc12`, the GI50 was 0.419 µM and the TGI stood at 3.03 µM.
The matching figures for `CNCCn1c(=O)c2cc(OC)c(OC)cc2c2cnc3cc4c(cc3c21)OCO4`: less than 0.01 µM and less than 0.0177 µM.
As for `COc1ccc2c(c1)C(C)Cc1c(ncnc1-n1cnc3ccccc31)N2C` (configuration not stated), the GI50 is 0.293 µM and the TGI amounted to 10.6 µM.
The matching figures for `c1ccc2c(c1)c1ccccc1c1ccccc21`: greater than 100 µM and greater than 100 µM.
The matching figures for `NC(N)=N/N=C(\N=Nc1ccccc1)c1ccc(Cl)cc1`: 2.12 µM and 5.41 µM.
The matching figures for `O=C(NC1CCCCC1)c1ccc(Nc2ncnc3c2cnn3-c2ccccc2)cc1`: 21.7 µM and greater than 100 µM.
Regarding `COc1ccc(-c2nn(-c3cccc(Cl)c3)cc2-c2nc(N)[nH]c(=O)c2C#N)cc1`, the GI50 was 2.12 µM and the TGI was found to be 6.43 µM.
